Experimental findings from patent US20230086706A1, “Compounds for promoting follicle maturation” (Aarhus Universitet, priority 2020, published 2023) are described below.

Data set [1] relates to ID8 Mouse Ovarian Surface Epithelial Cell Line. Nature of the data set: Toxicity assay (cell morphology by light microscopy). The class given is cell-based. To be noted: 1 μM compound, cells grown for 2 days, morphology checked using light microscopy. On the procedure: Immediately, 1 μM compound was added to the media and cells were grown for 2 days and morphology checked using light microscopy.

The subject of data set [2] is ovaries (primordial, primary and secondary follicles). Nature of the data set: Evaluation of follicle numbers after ovary organ culture with compound. The class given is cell-based, C57BL/6j×CBA F1 hybrid mice. To be noted: ovaries of 7-day-old female pups cultured four days; 0.5 μM and 1 μM for 582 and 583, 25 μM for 798 and 798 (so in the source). On the procedure:
C57BL/6j×CBA F1 hybrid mice (Janvier Labs, France) were housed and bred in the animal facilities at Department of Biomedicine, Aarhus University. Animals were housed in a 12:12 h controlled light-dark environment and were provided with food and water ad libitum. 7-day-old female pups were used for the study.
Pups were sacrificed and ovaries were excised. Using a stereomicroscope MZ75 (Leica Microsystems, Germany), excess tissue was removed. […] 200-300 μL of culture medium was added to the well below the insert and up to two ovaries were placed on the membrane of each insert. […] Up to six wells in the 24-well plate were used for inserts. […] The ovaries were cultured at 37° C., 5% CO2 for four days. 150 μL of medium was replaced every other day with fresh culture medium.
Ovaries kept in organ culture for four days were fixed for 24 hours in 4% paraformaldehyde solution at 4° C. After fixation, ovaries were dehydrated in ethanol series using 70%, 96% and 99.9% ethanol. Xylene was used as clearing agent before the ovaries were infiltrated in paraffin wax. 5 μm-sections of samples in paraffin were cut using a microtome (Cut 6062, SLEE medical, Germany). […] The samples were then rinsed in dH2O, stained in hematoxylin for 40 sec., rinsed in dH2O for 5 min., and stained in eosin for 46 sec. The samples were dehydrated in ethanol: 2×2 min. in 96% ethanol, 2×2 min in 99.9% ethanol, and finally cleared up in xylene for at least 30 min before mounting the samples using Eukitt mounting medium (Sigma-Aldrich) and cover glass. […] The follicles of every 3rd to 4th section of each ovary were counted and the distribution of follicles in the different stages in percentage was determined.

`NC(=O)c1ccc[n+](Cc2ccccc2)c1` [Compound 582, 1-benzyl-3-carbamoylpyridin-1-ium]: in data set [1], the “toxicity to the grown cells / alteration of the morphology of the cells” value is listed as “not to alter the morphology of the cells nor to be toxic to the grown cells”. For the same compound, in data set [2], the “overall appearance and size of the ovaries in culture (visual inspection of ovarian sections)” value (“overall appearance and size” below) is “healthy and the size was normal, no shrinkage was observed”. Regarding `C[n+]1cccc(C(N)=O)c1` [Compound 583, 3-carbamoyl-1-methylpyridin-1-ium], the “toxicity to the grown cells / alteration of the morphology of the cells” value in data set [1] was “not to alter the morphology of the cells nor to be toxic to the grown cells”. For the same compound, in data set [2], the “overall appearance and size” value is “healthy and the size was normal, no shrinkage was observed”. Consider `NC(=O)c1ccc[n+](C2CCOCC2)c1` [Compound 798, 3-carbamoyl-1-(tetrahydro-2H-pyran-4-yl)pyridin-1-ium], for which the “toxicity to the grown cells / alteration of the morphology of the cells” value in data set [1] is “not to alter the morphology of the cells nor to be toxic to the grown cells”. For the same compound, the “overall appearance and size” value in data set [2] was “healthy and the size was normal, no shrinkage was observed”. `CC1=C2C[C@H]3[C@@H](CC=C4C[C@@H](O)CC[C@@]43C)[C@@H]2CC[C@]12O[C@@H]1C[C@H](C)CN[C@H]1[C@H]2C` [cyclopamine, Cyclopamine, reference compound]: the “toxicity to the grown cells / alteration of the morphology of the cells” value in data set [1] is “not to alter the morphology of the cells nor to be toxic to the grown cells”.
